{
  "source": "patent US6107549A",
  "about": "“Genetically engineered plant resistance to thiazopyr and other pyridine herbicides” (Monsanto Company, priority 1999, dated 2000)",
  "key": {"pyridine-esterase": {"system": "pyridine-esterase", "format": "biochemical, rabbit", "experimental": "Esterase activity assays. Esterase activity was measured in vitro by conversion of either [^14 C]thiazopyr or [^14 C]MON 14300 to their corresponding monoacid. Pyridine-esterase activity was assayed during protein purification and from tissue extracts of transgenic plants. The homogenizing buffer for plant tissues consisted of 100 mM Tris pH 8.0, 1 mM EDTA, 1 mM DTT, and 10% glycerol in water. Plant tissues (1 g/ml buffer) including leaves, seeds, flowers, seedlings, etc. were homogenized in conical centrifuge tubes using a spinning pestle at 4° C. Following centrifugation (12,000× g), the supernatant (250 μl) was assayed immediately for esterase activity by incubation with [^14 C]thiazopyr or [^14 C]MON 14300 (4 μg) in 0.1 M Tris pH 8.0 buffer (50 μl) at 37° C. The reaction was sampled (100 μL) at various times (0.5 to 100 hr) to generate a kinetic profile of monoacid formation. The reaction was stopped by addition of 1% trifluoroacetic acid in acetonitrile (v/v, 150 μl). Following centrifugation (12,000× g for 3 min), the supernatant was analyzed by HPLC/RAD (radioactivity detection) to resolve the monoacid from the parent herbicide and other metabolites. Control reactions in the absence of the esterase recovered un-reacted thiazopyr or MON 14300 for the duration of experiments. Esterase activity was also assayed during protein purification following a similar procedure except a single time-point (1-2 hrs) of incubation was selected within the linear range of reaction. In vitro assays also employed three commonly used calorimetric (p-nitrophenyl butyrate) or fluorescent (4-methyl umbelliferyl butyrate and 5-bromo-4-chloro-3-indolylacetate) substrates. These substrates are useful in rapidly and qualitatively detecting general esterase activity.\nTissue extracts from 3 tobacco R1 seedlings were employed for further studies. Two of the lines (#37437 and #37432) expressed high levels of esterase (~0.5%) and one line (#37436) which expressed no pyridine-esterase was used as negative control. Tissue extracts were incubated with [^14 C]MON 14300 and formation of the monoacid monitored with time. […] In comparison, less that 2% monoacid was detected in line (#37436). […] First, pyridine-esterase was capable of driving the hydrolysis reaction to completion with no apparent product inhibition, and second, there was no endogenous esterase activity in tobacco which catalyzed MON 14300 hydrolysis."}, "tomato": {"system": "tomato", "assay": "Field test for tomato resistance", "format": "in vivo", "experimental": "Field test for tomato resistance. A single field test was conducted in early summer at a Monsanto Company research farm in Jerseyville, Ill. A total of 9 transgenic lines were selected for the field study. […] The remaining 6 lines were R1 seeds selected based on high expression level and seed availability. About 400 seeds were pooled from each line based on uniformity of size and appearance, and randomly separated into 4 groups of about 100 seeds. Four parallel plots (5×20 m) were respectively sprayed with 0, 112, 336, and 673 g/ha of thiazopyr, which was then incorporated down to 7.5 cm of soil depth. The projected field use-rate for thiazopyr is about 280 g/ha. Seeds were placed in a furrow at every 5 cm distance and covered with soil. UC82B seeds were used as untransformed controls. After sowing, 13 mm of water was irrigated over the plots. […] Nevertheless, it was possible to measure thiazopyr resistance based on seedling emergence between control UC82B and the transgenic lines. […] However at 336 g/ha, #8255-30 maintained germination at 10% while UC82B declined to about 1%. […] The transgenic lines flowered, set fruit, and yielded abundant tomatoes and seeds."}},
  "data": [
    {"smiles": "COC(=O)c1c(C(F)F)nc(C(F)(F)F)c(C(=O)n2cccn2)c1CC(C)C", "note": "[MON 14300]", "values": [
      {"measurement": "hydrolysis to monoacid metabolite", "setting": "pyridine-esterase; non-expressing line #37436, FIG. 3", "result": "no hydrolysis"},
      {"measurement": "monoacid detected", "setting": "pyridine-esterase; tobacco, seedling tissue extract", "result": "< 2", "unit": "%"}
    ]},
    {"smiles": "COC(=O)c1c(C(F)F)nc(C(F)(F)F)c(C2=NCCS2)c1CC(C)C", "note": "[thiazopyr]", "values": [
      {"measurement": "germination", "setting": "tomato; UC82B and #8255-30, 112 g/ha, 21 days after planting", "result": "slightly lower but still comparable germination"},
      {"measurement": "germination", "setting": "tomato; UC82B control, 336 g/ha", "result": "about 1%"},
      {"measurement": "germination", "setting": "tomato; UC82B control, 673 g/ha", "result": "no germination at all"},
      {"measurement": "survival at later time points", "setting": "tomato; UC82B plants that germinated at 112 and 336 g/ha", "result": "had died due to weakening of the stem at the soil line"},
      {"measurement": "germination", "setting": "tomato; transgenic #8255-30, 336 g/ha", "result": 10, "unit": "%"},
      {"measurement": "germination", "setting": "tomato; transgenic #8255-30, 673 g/ha", "result": 4, "unit": "%"},
      {"measurement": "growth at later time points", "setting": "tomato; transgenic lines showing thiazopyr injury", "result": "growth was not affected"}
    ]}
  ]
}
